Where a name gives a salt, the structure may show the parent alone. Read-outs that look alike come from different tables or passages of the source.
Columns and labels:
[1] = test system: pentylenetetrazole (PTZ) induced convulsion; assay: Antagonism to the pentylenetetrazole (PTZ) induced convulsion; type: in vivo, ddy male mice; conditions: Mus musculus, read-out: Anti-PTZ convulsion (ED50)
Procedure: (§1) Each compound was used in the form of 0.5 to 1% suspension made by mixing
(§2) with its half volume of arabic gum.
***Antagonism to the pentylenetetrazole (PTZ) induced convulsion: To
several groups of ddy male mice in 4 to 5 weeks age, each group consistin
of 8 mice was orally administered the test compound. Half an hour later,
125 mg/kg of pentylenetetrazole was subcutaneously administered, and the
number of mice surviving during 2 hours was observed. The ED50 value
was obtained from the survival number according to the probit method.

[2] = test system: tetrabenazine (TBZ) induced ptosis; assay: Antagonism to the tetrabenazine (TBZ) induced ptosis; type: in vivo, DS male mice; conditions: Mus musculus, sc, read-out: Anti-TBZ ptosis (ED50)
Procedure: as §1, §2
**Antagonism to the tetrabenazine (TBZ) induced ptosis: To several groups
of DS male mice in 4 to 5 weeks age, each group consisting of 5 mice was
subcutaneously administered the test compound. Half an hour later, 50
mg/kg of tetrabenazine was subcutaneously administered. Degree of the
ptosis in 1 hour was scored, and the result was subjected to the rigid
conversion. The ED50 value was obtained from the regression

[3] = ddy male mice, oral, half an hour before pentylenetetrazole 125 mg/kg s.c., survival during 2 hours
[4] = DS male mice, subcutaneous, half an hour before tetrabenazine 50 mg/kg s.c., ptosis scored in 1 hour

Q: Which results are given for `O=C1CN=C(c2ccccc2F)c2cc(Cl)ccc2N1C1CCNCC1` [Compound 23, 7-chloro-1,3-dihydro-5-(2-fluorophenyl)-1-(4-piperidinyl)-2H-1,4-benzodiazepin-2-one]?
A: ED50 [1, 3]: 8.52 mg/kg; ED50 [2, 4]: 0.075 mg/kg

Q: Which results are given for `CN(C)CCCN1c2ccccc2CCc2ccccc21` [imipramine, reference compound]?
A: ED50 ([1]; po, 2 h): > 10 mg/kg; ED50 ([2]; 1 h): 0.799 mg/kg

Q: How did the ED50 ([1]; po, 2 h) turn out when `Cc1ccc2c(c1)C(c1ccccc1F)=NCC(=O)N2C1CCN(C)CC1` [Compound 15] was run?
A: > 10 mg/kg

Q: And the ED50 ([2]; 1 h)?
A: 0.839 mg/kg

Q: Which results are given for `CN1CCC(N2C(=O)CN=C(c3ccccc3F)c3ccccc32)CC1` [Compound 8, 1-(1-methyl-4-piperidinyl)-1,3-dihydro-5-(2-fluorophenyl)-2H-1,4-benzdiazepin-2-one]?
A: ED50 ([1]; po, 2 h): > 10 mg/kg; ED50 ([2]; 1 h): 0.205 mg/kg

Q: For `O=C1CN=C(c2ccccc2)c2ccccc2N1C1CCNCC1` [Compound 26, 1-(4-piperidinyl)-1,3-dihydro-5-phenyl-2H-1,4-benzodiazepin-1-one hydrobromide], which ED50 [1, 3] is on record?
A: > 10 mg/kg

Q: What about the ED50 [2, 4] of the same compound?
A: 0.063 mg/kg

Q: How did the ED50 ([1]; po, 2 h) turn out when `CN1CCC(N2C(=O)CN=C(c3ccccc3F)c3cc(Cl)ccc32)CC1` [Compound 10] was run?
A: 0.77 mg/kg

Q: And the ED50 ([2]; 1 h)?
A: 1.3 mg/kg

Q: For `CN1CCC(N2C(=O)CN=C(c3ccccc3)c3ccccc32)CC1` [Compound 6], which ED50 ([1]; po, 2 h) is on record?
A: > 20 mg/kg

Q: What about the ED50 ([2]; 1 h) of the same compound?
A: 0.26 mg/kg
